Reference: patent publication US9133181B2, “Substituted 6-(4-hydroxy-phenyl)-1H-pyrazolo[3,4-b]pyridine derivatives as kinase inhibitors” (SANOFI, priority 2012, dated 2015)

Each molecule was assayed against T1, human full-length recombinant PKC βII (Homo sapiens, UniProt P05771) (assay: Determination of PKC βII inhibition (Caliper mobility shift kinase assay)). Settings: final compound concentration 1.14 μM (±0.15 μM); 60 min incubation at 32° C.
T1 construct: Active human full-length recombinant PKC βII; purchased Invitrogen GmbH, Darmstadt, Germany
Assay type: biochemical
Description: Determination of PKC βII Inhibition
PKC βII inhibition was determined according to the following protocol:
Active human full-length recombinant PKC βII and the peptide substrate, Fluorescein-RFARKGSLRQKNV, were purchased from Invitrogen GmbH, Darmstadt, Germany. Adenosine-5′-triphosphate (ATP), bovine serum albumine (BSA), dimethylsulphoxide (DMSO), 4-(2-hydroxyethyl)piperazine-1-ethanesulfonic acid (Hepes), Triton X-100, 1,2-Dioleoyl-sn-glycerol (DAG), L-α-Phosphatidyl-L-serine (PS), calcium chloride (CaCl2), and Pluronic F-68 were purchased from Sigma-Aldrich, Munich, Germany. Magnesium chloride, 1 M sodium hydroxide solution, 1M hydrochloric acid solution and EDTA were obtained from Merck Biosciences, Darmstadt, Germany.
Test compounds were diluted to three times the test concentration in buffer 1 (30 mM Hepes-NaOH, pH 7.4, 0.01% Pluronic F-68 and 3% (v/v) DMSO). The […] enzyme was diluted to a concentration of 30 ng/ml in buffer 2 (30 mM Hepes-NaOH, pH 7.4, 15 mM MgCl2, 150 μM CaCl2, 150 μg/ml PS, 60 μg/ml DAG, and 0.045% (w/v) Triton X-100). The peptide substrate and ATP were diluted to concentrations of 3 μM and 120 μM, respectively, in buffer 2. Two μl of the compound solution were mixed with 2 μl of the diluted enzyme in a 384-well small volume microtiter plate (Greiner, Bio-One, Frickenhausen, Germany), and the kinase reaction was initiated by addition of 2 μl of the solution containing peptide substrate and ATP. After 60 min incubation at 32° C., the reaction was stopped by addition of 20 μl of a solution containing 130 mM Hepes-NaOH, pH 7.4, 0.0195% (v/v) Brij-35, 6.5 mM EDTA, 0.13% chip coating reagent 3 (Caliper Lifescience Inc, Hopkinton, Mass.) and 6.5% (v/v) DMSO. Phosphorylation of the substrate peptide was then detected on a Caliper 3000 instrument essentially as described by Pommereau et al (J. Biomol. Screening 2004, 9(5), 409-416). Separation conditions were as follows: Pressure −0.8 psi, upstream voltage −3000 V, downstream voltage −800 V. Positive controls (buffer 1 instead of compound) and negative controls (buffer 1 instead of compound and buffer 2 instead of kinase solution) were run in parallel on each plate. Fractional turnover (R) was determined as the height of the peak of the phosphorylated peptide product divided by the sum of the unphosphorylated substrate and phosphorylated product peak heights. Percent-inhibition values for the test compounds were determined using the formula % Inhibition=100*(1−(Rcompound−Rnegative control)/(Rpositive control−Rnegative control).
In the following table % inhibition values observed with example compounds at a final concentration of 1.14 μM (±0.15 μM) are listed: […]

T1 sequence (P05771 1-673 isoform P05771-2): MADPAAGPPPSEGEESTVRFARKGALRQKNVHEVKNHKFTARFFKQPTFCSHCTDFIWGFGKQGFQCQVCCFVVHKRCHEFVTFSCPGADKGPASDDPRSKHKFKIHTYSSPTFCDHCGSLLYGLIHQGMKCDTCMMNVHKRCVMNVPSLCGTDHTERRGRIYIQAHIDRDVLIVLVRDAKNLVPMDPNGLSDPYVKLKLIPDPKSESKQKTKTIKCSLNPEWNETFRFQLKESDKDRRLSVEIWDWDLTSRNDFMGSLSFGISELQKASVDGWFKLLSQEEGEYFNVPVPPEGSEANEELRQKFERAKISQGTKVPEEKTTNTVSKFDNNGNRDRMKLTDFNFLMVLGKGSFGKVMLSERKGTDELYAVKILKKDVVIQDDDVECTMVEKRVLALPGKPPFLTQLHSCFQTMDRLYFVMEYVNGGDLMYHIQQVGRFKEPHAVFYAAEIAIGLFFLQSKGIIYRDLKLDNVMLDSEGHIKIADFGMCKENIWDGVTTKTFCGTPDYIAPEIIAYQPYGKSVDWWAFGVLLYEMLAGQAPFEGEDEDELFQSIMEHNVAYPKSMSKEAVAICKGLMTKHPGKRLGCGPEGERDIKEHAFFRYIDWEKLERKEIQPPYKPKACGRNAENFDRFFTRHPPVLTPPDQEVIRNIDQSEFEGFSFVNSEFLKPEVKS

Row | SMILES | inhibition at 1.14 µM
1 | Cc1n[nH]c2nc(-c3ccc(O)cc3F)cc(CN3CC(C)(C)OCC3(C)C)c12 [Example 56, 3-Fluoro-4-[3-methyl-4-(2,2,5,5-tetramethyl-morpholin-4-ylmethyl)-1H-pyrazolo[3,4-b]pyridin-6-yl]-phenol] | 85%
2 | CCC1(C)CN(Cc2cc(-c3ccc(O)cc3)nc3[nH]nc(C)c23)C(C)(C)CN1 (stereo not shown) [Example 57, 4-[4-(5-Ethyl-2,2,5-trimethyl-piperazin-1-ylmethyl)-3-methyl-1H-pyrazolo[3,4-b]pyridin-6-yl]-phenol] | 93%
3 | CCC1(CC)CN(Cc2cc(-c3ccc(O)c(F)c3)nc3[nH]nc(C)c23)C(C)(C)CN1 [Example 58, 4-[4-(5,5-Diethyl-2,2-dimethyl-piperazin-1-ylmethyl)-3-methyl-1H-pyrazolo[3,4-b]pyridin-6-yl]-2-fluoro-phenol] | 91%
4 | CCC1(CC)CN(Cc2cc(-c3ccc(O)cc3Cl)nc3[nH]nc(C)c23)C(C)(C)CN1 [Example 59, 3-Chloro-4-[4-(5,5-diethyl-2,2-dimethyl-piperazin-1-ylmethyl)-3-methyl-1H-pyrazolo[3,4-b]pyridin-6-yl]-phenol] | 96%
5 | Cc1n[nH]c2nc(-c3ccc(O)cc3)cc(CNC3CCNCC3(C)C)c12 (stereo not shown) [Example 60, 4-{4-[(3,3-Dimethyl-piperidin-4-ylamino)-methyl]-3-methyl-1H-pyrazolo[3,4-b]pyridin-6-yl}-phenol] | 92%
6 | Cc1n[nH]c2nc(-c3ccc(O)cc3)cc(CN3CC(C)N(Cc4cccnc4)CC3(C)C)c12 (stereo not shown) [Example 61, 4-[3-Methyl-4-(2,2,5-trimethyl-4-pyridin-3-ylmethyl-piperazin-1-ylmethyl)-1H-pyrazolo[3,4-b]pyridin-6-yl]-phenol] | 84%
7 | Cc1n[nH]c2nc(-c3ccc(O)cc3)cc(CN3CC(C)N(CC4CCCO4)CC3(C)C)c12 (stereo not shown) [Example 62, 4-{3-Methyl-4-[2,2,5-trimethyl-4-(tetrahydro-furan-2-ylmethyl)-piperazin-1-ylmethyl]-1H-pyrazolo[3,4-b]pyridin-6-yl}-phenol] | 99%
8 | COCCN1CC(C)(C)N(Cc2cc(-c3ccc(O)cc3)nc3[nH]nc(C)c23)CC1C (stereo not shown) [Example 63, 4-{4-[4-(2-Methoxy-ethyl)-2,2,5-trimethyl-piperazin-1-ylmethyl]-3-methyl-1H-pyrazolo[3,4-b]pyridin-6-yl}-phenol] | 97%
9 | COCCCN1CC(C)(C)N(Cc2cc(-c3ccc(O)cc3)nc3[nH]nc(C)c23)CC1C (stereo not shown) [Example 64, 4-{4-[4-(3-Methoxy-propyl)-2,2,5-trimethyl-piperazin-1-ylmethyl]-3-methyl-1H-pyrazolo[3,4-b]pyridin-6-yl}-phenol] | 94%
10 | Cc1n[nH]c2nc(-c3ccc(O)cc3F)cc(CN3CC(C)(C)N(CCC(F)(F)F)CC3(C)C)c12 [Example 65, 3-Fluoro-4-{3-methyl-4-[2,2,5,5-tetramethyl-4-(3,3,3-trifluoro-propyl)-piperazin-1-ylmethyl]-1H-pyrazolo[3,4-b]pyridin-6-yl}-phenol] | 88%
11 | Cc1n[nH]c2nc(-c3ccc(O)cc3F)cc(CN3CC(C)(C)N(C)CC3(C)C)c12 [Example 66, 3-Fluoro-4-[3-methyl-4-(2,2,4,5,5-penta-methyl-piperazin-1-ylmethyl)-1H-pyrazolo[3,4-b]-pyridin-6-yl]-phenol] | 100%
12 | COCCCN1CC(C)(C)N(Cc2cc(-c3ccc(O)cc3F)nc3[nH]nc(C)c23)CC1(C)C [Example 67, 3-Fluoro-4-{4-[4-(3-methoxy-propyl)-2,2,5,5-tetramethyl-piperazin-1-ylmethyl]-3-methyl-1H-pyrazolo[3,4-b]pyridin-6-yl}-phenol] | 103%
13 | Cc1n[nH]c2nc(-c3ccc(O)cc3F)cc(CN3CC(C)(C)N(CCC4CCOCC4)CC3(C)C)c12 [Example 68, 3-Fluoro-4-(3-methyl-4-{2,2,5,5-tetramethyl-4-[2-(tetrahydro-pyran-4-yl)-ethyl]-piperazin-1-ylmethyl}-1H-pyrazolo[3,4-b]pyridin-6-yl)-phenol] | 101%
14 | Cc1n[nH]c2nc(-c3ccc(O)cc3F)cc(CN3CC(C)(C)N(C[C@H]4COC(C)(C)O4)CC3(C)C)c12 [Example 69, 4-{4-[4-((S)-2,2-Dimethyl-[1,3]dioxolan-4-ylmethyl)-2,2,5,5-tetramethyl-piperazin-1-ylmethyl]-3-methyl-1H-pyrazolo[3,4-b]pyridin-6-yl}-3-fluoro-phenol] | 92%
15 | Cc1n[nH]c2nc(-c3ccc(O)cc3F)cc(CN3CC(C)(C)N(CC4CCOCC4)CC3(C)C)c12 [Example 70, 3-Fluoro-4-{3-methyl-4-[2,2,5,5-tetramethyl-4-(tetrahydro-pyran-4-ylmethyl)-piperazin-1-ylmethyl]-1H-pyrazolo[3,4-b]pyridin-6-yl}-phenol] | 96%
16 | Cc1n[nH]c2nc(-c3ccc(O)cc3F)cc(CN3CC4(CCCC4)N(C)CC3(C)C)c12 [Example 71, 3-Fluoro-4-[3-methyl-4-(6,8,8-trimethyl-6,9-diaza-spiro[4.5]dec-9-ylmethyl)-1H-pyrazolo[3,4-b]pyridin-6-yl]-phenol] | 98%
17 | Cc1n[nH]c2nc(-c3ccc(O)cc3F)cc(CN3CC(C)(C)N(CCO)CC3(C)C)c12 [Example 72, 3-Fluoro-4-{4-[4-(2-hydroxy-ethyl)-2,2,5,5-tetramethyl-piperazin-1-ylmethyl]-3-methyl-1H-pyrazolo[3,4-b]pyridin-6-yl}-phenol] | 100%
18 | Cc1n[nH]c2nc(-c3ccc(O)cc3F)cc(CN3CC(C)(C)N(C[C@H](O)CO)CC3(C)C)c12 [Example 73, (S)-3-{4-[6-(2-Fluoro-4-hydroxy-phenyl)-3-methyl-1H-pyrazolo[3,4-b]pyridin-4-ylmethyl]-2,2,5,5-tetramethyl-piperazin-1-yl}-propane-1,2-diol] | 97%
19 | COC(=O)CN1CC(C)(C)N(Cc2cc(-c3ccc(O)cc3F)nc3[nH]nc(C)c23)CC1(C)C [Example 74, {4-[6-(2-Fluoro-4-hydroxy-phenyl)-3-methyl-1H-pyrazolo[3,4-b]pyridin-4-ylmethyl]-2,2,5,5-tetramethyl-piperazin-1-yl}-acetic acid methyl ester] | 95%
20 | COCC(=O)N1CC(C)(C)N(Cc2cc(-c3ccc(O)cc3F)nc3[nH]nc(C)c23)CC1(C)C [Example 75, 1-{4-[6-(2-Fluoro-4-hydroxy-phenyl)-3-methyl-1H-pyrazolo[3,4-b]pyridin-4-ylmethyl]-2,2,5,5-tetramethyl-piperazin-1-yl}-2-methoxy-ethanone] | 96%
21 | COCCC(=O)N1CC(C)(C)N(Cc2cc(-c3ccc(O)cc3F)nc3[nH]nc(C)c23)CC1(C)C [Example 76, 1-{4-[6-(2-Fluoro-4-hydroxy-phenyl)-3-methyl-1H-pyrazolo[3,4-b]pyridin-4-ylmethyl]-2,2,5,5-tetramethyl-piperazin-1-yl}-3-methoxy-propan-1-one] | 95%
22 | Cc1n[nH]c2nc(-c3ccc(O)cc3F)cc(CN3CC(C)(C)N(C(=O)C4CCOC4)CC3(C)C)c12 (stereo not shown) [Example 77, {4-[6-(2-Fluoro-4-hydroxy-phenyl)-3-methyl-1H-pyrazolo[3,4-b]pyridin-4-ylmethyl]-2,2,5,5-tetramethyl-piperazin-1-yl}-(tetrahydro-furan-3-yl)-methanone] | 98%
23 | CC(=O)N1CC(C)(C)N(Cc2cc(-c3ccc(O)cc3F)nc3[nH]nc(C)c23)CC1(C)C [Example 78, 1-{4-[6-(2-Fluoro-4-hydroxy-phenyl)-3-methyl-1H-pyrazolo[3,4-b]pyridin-4-ylmethyl]-2,2,5,5-tetramethyl-piperazin-1-yl}-ethanone] | 97%
24 | COCC(=O)N1CCCN(Cc2cc(-c3ccc(O)cc3F)nc3[nH]nc(C)c23)CC1C (stereo not shown) [Example 79, 1-{4-[6-(2-Fluoro-4-hydroxy-phenyl)-3-methyl-1H-pyrazolo[3,4-b]pyridin-4-ylmethyl]-2-methyl-[1,4]diazepan-1-yl}-2-methoxy-ethanone] | 65%
25 | Cc1n[nH]c2nc(-c3ccc(O)cc3F)cc(CN3CC(C)(C)N(C(=O)CO)CC3(C)C)c12 [Example 80, 1-{4-[6-(2-Fluoro-4-hydroxy-phenyl)-3-methyl-1H-pyrazolo[3,4-b]pyridin-4-ylmethyl]-2,2,5,5-tetramethyl-piperazin-1-yl}-2-hydroxy-ethanone] | 93%
